Results reported in US20250276069A1, “HETEROBIFUNCTIONAL COMPOSITIONS FOR TARGETED PROTEIN DEGRADATION AND METHODS FOR THEIR USE” (THE SCRIPPS RESEARCH INSTITUTE, priority 2021, published 2025).
Entries after “also recorded” stand apart in the source; their conditions may differ.

System: HCC1806 cells
Test: TMT MS quantitative proteomics of live cells treated with FragTAC probes (HCC1806)
Format: cell-based, Homo Sapiens
Conditions: for Downregulated proteins targeted by FragTAC probes (protein listed for the probe code): cell line not given; for Proteins targeted (downregulated) by FragTAC probe: value = downregulated protein
Protocol: Mammalian cell culture: MDA-MB-231 cells (ATCC) were maintained in DMEM supplemented with 10% (v/v) fetal bovine serum (FBS), 1% (v/v) penicillin/streptomycin, and 2 mM glutamine. HCC1806 cells (ATCC) were maintained in RPMI supplemented with 10% (v/v) fetal bovine serum (FBS), 1% (v/v) penicillin/streptomycin, and 2 mM glutamine. All cell lines were grown at 37° C. in a humidified 5% CO2 atmosphere.
Treatment of Live Cells with FragTAC Probes: Separate 6 cm (for gel-based analyses) or 10 cm (for MS-based analyses) dishes of MDA-MB-231 cells or HCC1806 cells were grown to 80-95% confluency with DMEM media and RPMI media respectively. The growth medium was aspirated, and the cells were washed with Dulbecco's phosphate buffered saline (DPBS). The cells were incubated with serum-free media containing fragment probes (200 μM) or control probes (200 μM) for 6 hours at 37° C. under a 5% CO2 atmosphere. The cultures were scraped, washed with cold DPBS, and collected into 15 mL centrifuge tubes, then transferred to 1.5 mL Eppendorf tubes. The cell suspensions were centrifuged (1,400 g, 3 min) and the pellets were stored at −80° C. until the next stage of processing.
Sample preparation for TMT MS Quantitative Proteomics: For treatment of cell lysates, cells were collected, cell pellets were resuspended in 100 μL DPBS containing 1× Halt protease inhibitor cocktail, and lysed by sonication (15 ms on, 40 ms off, 15% amplitude, 1 s total). Protein concentrations were normalized (2 mg/mL in 100 μL with cold DPBS) using the Lowry Protein Assay (Pierce). Urea (48 mg) was weighed for each sample in 2 mL LoBind Eppendorf tubes and cell lysates (100 μL=200 μg) were added (final urea concentration=8 M). Pellets were resuspended in a freshly prepared 1:1 solution (50 μL) TCEP (200 mM in DPBS) and K2CO3 (600 mM in DPBS) and incubated (30 min, 37° C.) while shaking. After reaction, a solution of freshly prepared iodoacetamide (70 μL, 400 mM in DPBS) was added and incubated for 30 min at room temperature while protected from light. After reaction, 1.8 mL of cold 3:1:2 MeOH/CHCl3/H2O solution was added to each tube, and the samples were centrifuged (10,000×g, 10 min, 4° C.), forming a disc. The supernatant was carefully removed, MeOH (600 μL) was added, samples were centrifuged as previously described and the supernatant was removed. Cell pellets were resuspended in TEAB (160 μL, 100 mM, pH 8.5) and sonicated as described previously. Endoproteinase LysC (20 μL, ½ vial, 10 μg dissolved in 220 μL of 100 mM TEAB pH 8.5) was added to each and incubated at 37° C. for 2 h with shaking. Sequencing-grade modified porcine trypsin (20 μL, 1 vial, 20 μg dissolved in 220 μL of 100 mM TEAB pH 8.5), a solution of Protease Max (2 μL, 1% (w/v) in 100 mM TEAB pH 8.5) and a solution of CaCl2) (2 μL, 100 mM) were added to the samples and incubated at 37° C. overnight (14 h) with shaking. The digest was separated by centrifugation (12,000×g, 10 min, 4° C.). Peptide concentration was determined using Pierce Quantitative Fluorometric Peptide Assay Kit (Thermo Fisher Scientific, 23290) according to manufacturer's instructions. MS-grade acetonitrile (12.5 μL) was added to each and samples were labeled with respective TMT 10 plex isotope (8 μL, 20 μg/μL) for 1 h with occasional vortexing at RT. To quench, hydroxylamine (3 μL, 5% v/v) was added to each sample, vortexed, and incubated for 15 min at RT. Formic acid (5 μL) was added to each tube to acidify and the samples were dried under vacuum centrifugation. The samples were combined by redissolving the contents of one tube in a solution of trifluoroacetic acid (TFA, 400 μL, 0.1% in water) and transferred into each sample until all samples were redissolved. The stepwise process was repeated with formic acid (Buffer A, 200 μL, 0.1% in water) for a final volume of 600 μL. […]

[1] = TMT proteomics, targets with 2 unique peptides or more and depleted 2-fold or more relative to DMSO control (P value <0.05)
[2] = protein with 2 unique peptides or more, depleted 2-fold or more relative to DMSO control (P value <0.05)

Structure (SMILES) | Downregulated proteins targeted by FragTAC probes (protein listed for the probe code) [1] | Proteins targeted (downregulated) by FragTAC probe [1] | Proteins targeted (downregulated) by FragTAC probe [2]
Cc1ncsc1-c1ccc(CNC(=O)[C@@H]2C[C@@H](O)CN2C(=O)[C@@H](NC(=O)CCOCCOCCOCCC(=O)N2CCN(CC3=C(c4ccc(Cl)cc4)CC(C)(C)CC3)CC2)C(C)(C)C)cc1 [IF-060, (2S,4R)-1-((S)-2-(tert-butyl)-16-(4-((4′-chloro-5,5-dimethyl-3,4,5,6-tetrahydro-[1,1′-biphenyl]-2-yl)methyl)piperazin-1-yl)-4,16-dioxo-7,10,13-trioxa-3-azahexadecanoyl)-4-hydroxy-N-(4-(4-methylthiazol-5-yl)benzyl)pyrrolidine-2-carboxamide] | GHITM | – | –
CCn1c2ccccc2c2ccc(CN(C(=O)CCOCCOCCOCCC(=O)N[C@H](C(=O)N3C[C@H](O)C[C@H]3C(=O)NCc3ccc(-c4scnc4C)cc3)C(C)(C)C)C3CCCC3)cc21 [IF-062, (2S,4R)-1-((S)-17-(tert-butyl)-2-cyclopentyl-1-(9-ethyl-9H-carbazol-2-yl)-3,15-dioxo-6,9,12-trioxa-2,16-diazaoctadecan-18-oyl)-4-hydroxy-N-(4-(4-methylthiazol-5-yl)benzyl)pyrrolidine-2-carboxamide] | GHITM | – | –
Cc1ncsc1-c1ccc(CNC(=O)[C@@H]2C[C@@H](O)CN2C(=O)[C@@H](NC(=O)CCOCCOCCC(=O)N[C@H]2CCCc3ccccc32)C(C)(C)C)cc1 [LPC049, (2S,4R)-1-((S)-3,3-dimethyl-2-(3-(2-(3-oxo-3-(((S)-1,2,3,4-tetrahydronaphthalen-1-yl)amino)propoxy)ethoxy)propanamido)butanoyl)-4-hydroxy-N-(4-(4-methylthiazol-5-yl)benzyl)pyrrolidine-2-carboxamide] | – | TMBIM6; also recorded: TOR4A | –
Cc1ncsc1-c1ccc(CNC(=O)[C@@H]2C[C@@H](O)CN2C(=O)[C@@H](NC(=O)CCOCCOCCC(=O)NCCC(c2ccccc2)c2ccccc2)C(C)(C)C)cc1 [LPC022, (2S,4R)-1-((S)-2-(tert-butyl)-4,13-dioxo-17,17-diphenyl-7,10-dioxa-3,14-diazaheptadecanoyl)-4-hydroxy-N-(4-(4-methylthiazol-5-yl)benzyl)pyrrolidine-2-carboxamide] | – | – | ZFR and ZMYM4
Cc1ncsc1-c1ccc(CNC(=O)[C@@H]2C[C@@H](O)CN2C(=O)[C@@H](NC(=O)CCOCCOCCOCCC(=O)N2CCCC2c2noc(Cc3ccc(Br)cc3)n2)C(C)(C)C)cc1 (stereo partly drawn) [IF-064, (2S,4R)-1-((2S)-16-(2-(5-(4-bromobenzyl)-1,2,4-oxadiazol-3-yl)pyrrolidin-1-yl)-2-(tert-butyl)-4,16-dioxo-7,10,13-trioxa-3-azahexadecanoyl)-4-hydroxy-N-(4-(4-methylthiazol-5-yl)benzyl)pyrrolidine-2-carboxamide] | GHITM | – | –
Cc1ncsc1-c1ccc(CNC(=O)[C@@H]2C[C@@H](O)CN2C(=O)[C@@H](NC(=O)CCOCCOCCOCCNC(=O)c2[nH]c3ccc(Cl)cc3c2-c2ccccc2)C(C)(C)C)cc1 [IF-073, 5-chloro-N-((S)-14-((2S,4R)-4-hydroxy-2-((4-(4-methylthiazol-5-yl)benzyl)carbamoyl)pyrrolidine-1-carbonyl)-15,15-dimethyl-12-oxo-3,6,9-trioxa-13-azahexadecyl)-3-phenyl-1H-indole-2-carboxamide] | CYP1B1 and FAM177A1 and GHITM and LGMN | NPC2 and PCLAF and RPLP1 and SETX and TXNIP | –
Cc1ncsc1-c1ccc(CNC(=O)[C@@H]2C[C@@H](O)CN2C(=O)[C@@H](NC(=O)CCOCCOCCOCCNC(=O)CCc2nc(-c3ccccc3)c(-c3ccccc3)o2)C(C)(C)C)cc1 [IF-072, (2S,4R)-1-((S)-2-(tert-butyl)-19-(4,5-diphenyloxazol-2-yl)-4,17-dioxo-7,10,13-trioxa-3,16-diazanonadecanoyl)-4-hydroxy-N-(4-(4-methylthiazol-5-yl)benzyl)pyrrolidine-2-carboxamide] | – | – | ZC3H14; also recorded: ZNF800
Cc1ncsc1-c1ccc(CNC(=O)[C@@H]2C[C@@H](O)CN2C(=O)[C@@H](NC(=O)CCOCCOCCC(=O)NCCc2ccc3c(c2)NC(=O)CCC3)C(C)(C)C)cc1 [LPC034, (2S,4R)-1-((S)-2-(tert-butyl)-4,13-dioxo-16-(2-oxo-2,3,4,5-tetrahydro-1H-benzo[b]azepin-8-yl)-7,10-dioxa-3,14-diazahexadecanoyl)-4-hydroxy-N-(4-(4-methylthiazol-5-yl)benzyl)pyrrolidine-2-carboxamide] | KRT10 and KRT2 | – | –
Cc1ccc(S(=O)(=O)N2CCN(C(=O)CCCCC(=O)N[C@H](C(=O)N3C[C@H](O)C[C@H]3C(=O)NCc3ccc(-c4scnc4C)cc3)C(C)(C)C)CC2)cc1 [IF-080, (2S,4R)-1-((S)-3,3-dimethyl-2-(6-oxo-6-(4-tosylpiperazin-1-yl)hexanamido)butanoyl)-4-hydroxy-N-(4-(4-methylthiazol-5-yl)benzyl)pyrrolidine-2-carboxamide] | CTSZ and INCENP and KIF20A and KIF22 and ANLN | PRC1 and RACGAP1 and TPX2 and TXNIP and UHRF1 | ZBTB11
Cc1ncsc1-c1ccc(CNC(=O)[C@@H]2C[C@@H](O)CN2C(=O)[C@@H](NC(=O)CCOCCC(=O)N2CCN(C(c3ccccc3)c3ccccc3)CC2)C(C)(C)C)cc1 [IF-049, (2S,4R)-1-((S)-2-(3-(3-(4-benzhydrylpiperazin-1-yl)-3-oxopropoxy)propanamido)-3,3-dimethylbutanoyl)-4-hydroxy-N-(4-(4-methylthiazol-5-yl)benzyl)pyrrolidine-2-carboxamide] | – | – | YIPF3; also recorded: YLPM1; also recorded: ZNF185
Cc1ncsc1-c1ccc(CNC(=O)[C@@H]2C[C@@H](O)CN2C(=O)[C@@H](NC(=O)CCOCCOCCOCCC(=O)N2CCN(C(c3ccccc3)c3ccccc3)C[C@@H]2c2ccccc2)C(C)(C)C)cc1 [CMC-6-123, (2S,4R)-1-((S)-16-((S)-4-benzhydryl-2-phenylpiperazin-1-yl)-2-(tert-butyl)-4,16-dioxo-7,10,13-trioxa-3-azahexadecanoyl)-4-hydroxy-N-(4-(4-methylthiazol-5-yl)benzyl)pyrrolidine-2-carboxamide] | – | – | ZBTB1; also recorded: ZNF217
Cc1ncsc1-c1ccc(CNC(=O)[C@@H]2C[C@@H](O)CN2C(=O)[C@@H](NC(=O)CCOCCOCCOCCC(=O)NC2=NC(c3ccccc3)c3ccccc3NC2=O)C(C)(C)C)cc1 (stereo partly drawn) [IF-065, (2S,4R)-1-((2S)-2-(tert-butyl)-4,16-dioxo-16-((2-oxo-5-phenyl-2,5-dihydro-1H-benzo[e][1,4]diazepin-3-yl)amino)-7,10,13-trioxa-3-azahexadecanoyl)-4-hydroxy-N-(4-(4-methylthiazol-5-yl)benzyl)pyrrolidine-2-carboxamide] | BRD2 | TMBIM6 | –
